Results published in patent US20230257365A1, “SMALL MOLECULE ANDROGEN RECEPTOR PROTEIN DEGRADERS” (THE REGENTS OF THE UNIVERSITY OF MICHIGAN, priority 2020, published 2023).

Molecular target: T1, AR protein (Homo sapiens, UniProt P10275)
T1 construct: endogenous in cells; host or cells: VCaP
T1 sequence (P10275 1-920): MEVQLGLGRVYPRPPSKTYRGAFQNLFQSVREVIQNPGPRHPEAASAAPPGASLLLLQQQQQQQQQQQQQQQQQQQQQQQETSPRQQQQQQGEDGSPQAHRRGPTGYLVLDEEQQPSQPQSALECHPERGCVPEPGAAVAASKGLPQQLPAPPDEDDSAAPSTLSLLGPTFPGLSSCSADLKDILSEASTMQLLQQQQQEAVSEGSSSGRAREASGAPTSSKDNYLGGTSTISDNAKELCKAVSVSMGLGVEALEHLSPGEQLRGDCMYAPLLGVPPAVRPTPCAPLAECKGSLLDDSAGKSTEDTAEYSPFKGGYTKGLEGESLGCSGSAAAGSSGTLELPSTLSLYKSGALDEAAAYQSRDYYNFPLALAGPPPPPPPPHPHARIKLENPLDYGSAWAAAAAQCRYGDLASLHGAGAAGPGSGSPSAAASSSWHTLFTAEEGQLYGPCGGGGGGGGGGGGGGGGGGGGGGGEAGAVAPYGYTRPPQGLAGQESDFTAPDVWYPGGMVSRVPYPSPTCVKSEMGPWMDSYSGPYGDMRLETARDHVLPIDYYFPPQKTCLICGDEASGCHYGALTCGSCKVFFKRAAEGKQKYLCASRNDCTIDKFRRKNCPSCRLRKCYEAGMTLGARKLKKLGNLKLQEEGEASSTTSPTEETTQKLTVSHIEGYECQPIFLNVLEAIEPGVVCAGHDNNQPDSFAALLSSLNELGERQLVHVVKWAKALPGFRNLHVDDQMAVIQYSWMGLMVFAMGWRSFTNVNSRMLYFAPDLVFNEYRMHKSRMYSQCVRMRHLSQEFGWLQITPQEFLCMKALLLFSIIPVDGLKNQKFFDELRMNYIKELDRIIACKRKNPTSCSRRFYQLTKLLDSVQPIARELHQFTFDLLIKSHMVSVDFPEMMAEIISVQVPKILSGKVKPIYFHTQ
Test: AR protein degradation by western blotting in VCaP cells
Format: cell-based
Method: The appropriate cell line, e.g., prostate cancer LNCaP, Vcap, or MDA-MB-453, cell line, was treated with Compounds of the Disclosure. The treated cells were lysed with RIPA buffer. The AR level in the cell lysates was examined by western blotting and a specific AR antibody (ab 194196, Abeam, Cambridge, Mass. 02139) with concentration of 1:20,000. GAPDH was used as a loading control.
Bands were quantified with ImageJ software. The relative numbers of each band obtained from normalization with its corresponding GAPDH level were compared with Prism 8 software. The DC50 values were produced from Prism 8, and the DC90 values were calculated with an equation=Bottom+(Top−Bottom)/(1+10^((Log EC50−X)*HillSlope) based on DC50 and Hillslope values.
The amount of AR protein degradation in LNCap, VCap, and MDA-MB-453 cells caused representative Compounds of the Disclosure at the concentrations indicated is presented in Table 4.

| SMILES | % AR protein degradation in VCaP Cells (0.001 μM) [%] | % AR protein degradation in VCaP Cells (0.01 μM) [%] | % AR protein degradation in VCaP Cells (0.1 μM) [%] | % AR protein degradation in VCaP Cells (1 μM) [%] |
| --- | --- | --- | --- | --- |
| N#Cc1ccc(OC2CCN(C(=O)c3ccc(N4CCC(N5CCN(c6ccc7c(c6)C(=O)N(C6CCC(=O)NC6=O)C7=O)CC5)CC4)cc3)CC2)cc1Cl (stereo not drawn) [compound 336, 2-chloro-4-((1-(4-(4-(4-(2-(2,6-dioxopiperidin-3-yl)-1,3-dioxoisoindolin-5-yl)piperazin-1-yl)piperidin-1-yl)benzoyl)piperidin-4-yl)oxy)benzonitrile] | 3 | −5 | −5 | 4 |
| N#Cc1ccc(OC2CCCN(C(=O)c3ccc(N4CCC(N5CCN(c6ccc7c(c6)C(=O)N(C6CCC(=O)NC6=O)C7=O)CC5)CC4)cc3)CC2)cc1Cl (stereo not drawn) [compound 337, 2-chloro-4-((1-(4-(4-(4-(2-(2,6-dioxopiperidin-3-yl)-1,3-dioxoisoindolin-5-yl)piperazin-1-yl)piperidin-1-yl)benzoyl)azepan-4-yl)oxy)benzonitrile] | 18 | 12 | 9 | 29 |
| N#Cc1ccc(-c2ccn(Cc3ccc(C(=O)N4CCN(C5CCN(c6ccc7c(c6)C(=O)N(C6CCC(=O)NC6=O)C7=O)CC5)CC4)cc3)n2)cc1Cl (stereo not drawn) [compound 338, 2-chloro-4-(1-(4-(4-(1-(2-(2,6-dioxopiperidin-3-yl)-1,3-dioxoisoindolin-5-yl)piperidin-4-yl)piperazine-1-carbonyl)benzyl)-1H-pyrazol-3-yl)benzonitrile] | −1 | −12 | 8 | 93 |
